Where “and” joins values, the source holds several entries; their conditions need not be identical. Identical values can stand only once.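 Each compound was tested at five concentrations against cells in 96-well plates for 48 hours. Here, GI50 denotes the concentration required for 50% inhibition of growth. Definition used: TGI = concentration required for complete inhibition of growth.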
Each compound was assayed on HT29 colon (assay: NCI anticancer screen, dose series, 48 h).

Compound | TGI | GI50
COc1ccc2ccccc2c1/C=C/C(=O)c1ccccc1 | 12.4 µM | –
O=C1CSC(c2cccc(Oc3ccccc3)c2)N1c1ccc(Cl)cc1 (centres undefined) | > 100 µM | –
Nc1nc(N)c2ncn(-c3ccc(Cl)cc3)c2n1 | > 100 µM | –
Cc1ccc([N+](=O)[O-])cc1S(=O)(=O)Nc1ccc(C2=NNC(c3ccccc3)C2)cc1 (centres undefined) | > 100 µM | –
COc1cc(C(=O)N(Cc2cccnc2)C(=S)N(Cc2cccnc2)C(=O)c2cc(OC)c(OC)c(OC)c2)cc(OC)c1OC | > 100 µM | –
COc1cc(CNCc2cc(OC)c(OC)c(OC)c2)cc(OC)c1OC | > 10 µM | –
Cc1ccc2c(c1)C(C(=O)N[C@@H]1C(=O)N3[C@@H]1SC(C)(C)[C@@H]3C(=O)O)OCCC2 (some centres undefined) | > 100 µM | –
CCOCc1nc2c(OC)cc(-c3nc4ccc(N5CCN(C)CC5)cc4[nH]3)c(OC)c2[nH]1 | 83 µM | –
O=C(N/N=C\c1cccc2c([N+](=O)[O-])cccc12)Nc1ccccc1 | 34.7 µM | –
CC(=O)OCC12C(=O)C[C@@H](C)C3(CC(c4ccoc4)OC3=O)C1CCC(OC(C)=O)C21CO1 (some centres undefined) | > 100 µM | –
CON(C)C(=O)CNC(=O)OCC1c2ccccc2-c2ccccc21 | > 100 µM | –
Cc1cn(C2CC(N(O)Cc3ccccc3)C(CO[Si](C)(C)C(C)(C)C)O2)c(=O)[nH]c1=O (centres undefined) | 52.9 µM and 31.5 µM | –
O=C(NI1OC(=O)c2ccccc21)c1ccc(Cl)cc1 | > 100 µM | –
O=C(O)Cc1cccc2c(=O)c3ccccc3oc12 | > 100 µM | –
CC(=O)OC(/C=C/c1ccccc1)=C(OC(C)C)/C1=C(\c2ccccc2)SCCCSC1=O | > 100 µM | –
COc1cccc(-c2ccc3c4c2O[C@H]2C(=O)CC[C@@]5(O)[C@@H](C3)N(CC3CC3)CC[C@]425)c1 | 24.6 µM | –
COc1cc(Cn2c3c(c4cc(O)ccc42)Cc2ccccc2C3=O)cc(OC)c1 | > 100 µM | –

Compound | TGI | GI50
O=C1/C(=C/c2ccc([N+](=O)[O-])cc2)C(=O)N(c2ccccc2)C1c1ccccc1 (centres undefined) | > 10 µM | –
NC(N)=NCCC[C@H](N)C(=O)NCC(=O)N[C@@H](CC(=O)O)c1ncc(NC(=O)C(F)(F)F)o1 | > 25 µM | –
Cc1cc(S(=O)(=O)N=C2N(Cc3ccccc3)CCN2Cc2ccccc2)c(S)cc1Cl | > 100 µM | –
CCCN1CCC(=O)N(CCC(F)(F)C(F)(F)C(F)(F)C(F)(F)C(F)(F)C(F)(F)F)C1=S | > 100 µM | –
CSc1ccc2c(cc1=O)[C@@H](NC(=O)c1ccc(N)cc1)CCc1cc(O)c(O)c(O)c1-2 | 30.5 µM and 9.94 µM | 13.3 µM and 2.57 µM
O=C(c1ccc(N=Cc2ccccc2O)cc1)c1ccc(N=Cc2ccccc2O)cc1 | > 100 µM | –
Cn1cc(NC(=O)c2cc(NC(=O)CN=C(N)N)cn2C)cc1C(=O)NCCC(=N)N | > 100 µM | –
O=Cc1c(C(=O)O)[nH]c(=O)[nH]c1=O | > 100 µM | –
CCOC(=O)c1cc(C(O)P2(=O)N(CC(C)(C)C)[C@@H]3CCCC[C@H]3N2CC(C)(C)C)cn1C(=O)OC(C)(C)C (some centres undefined) | 26.7 µM | –
Cc1cccc(N=NC(=O)NNc2cccc(C)c2C)c1C | > 100 µM | –
COc1cc(/C=C2/C[C@H]3[C@@H]4CC=C5C[C@@H](O)CC[C@]5(C)[C@H]4CC[C@]3(C)NC2=O)cc(OC)c1OC | > 80.7 µM | –
Nc1cc2[nH]c(=O)c(=O)[nH]c2cc1N | > 100 µM | –
O=C1C=C(C2=CC(=O)C(=O)c3ccccc32)c2ccccc2C1=O | > 100 µM | –
C[N+](C)(C)CC1CCCCCCCCCCC1=O (centres undefined) | > 100 µM | –
CCN(CC)CCNc1nc2ccc([N+](=O)[O-])cc2[n+]([O-])n1 | 52.1 µM | –
Cc1c(S(=O)(=O)/N=C(\NO)Nc2ccc(Cl)c(Cl)c2)sc2ccc(Cl)cc12 | 29.3 µM | –
NN/C(=N\S(=O)(=O)c1cc2ccccc2s1)Nc1ccc(Cl)cc1 | 38.9 µM | –

The compounds below were run on HCT-116 colon (assay: NCI anticancer screen, dose series, 48 h).

Compound | TGI | GI50
COc1cc(/C=C2\C(=O)N(c3ccccc3)C(c3ccccc3)S2(=O)=O)cc(OC)c1OC (centres undefined) | > 100 µM | –
COc1ccc2ccccc2c1/C=C/C(=O)c1ccccc1 | 11 µM | –
O=C1CSC(c2cccc(Oc3ccccc3)c2)N1c1ccc(Cl)cc1 (centres undefined) | 37.9 µM | –
Nc1nc(N)c2ncn(-c3ccc(Cl)cc3)c2n1 | > 100 µM | –
Cc1ccc([N+](=O)[O-])cc1S(=O)(=O)Nc1ccc(C2=NNC(c3ccccc3)C2)cc1 (centres undefined) | 33.1 µM | –
COc1cc(C(=O)N(Cc2cccnc2)C(=S)N(Cc2cccnc2)C(=O)c2cc(OC)c(OC)c(OC)c2)cc(OC)c1OC | > 100 µM | –
COc1cc(CNCc2cc(OC)c(OC)c(OC)c2)cc(OC)c1OC | > 10 µM | –
Cc1ccc2c(c1)C(C(=O)N[C@@H]1C(=O)N3[C@@H]1SC(C)(C)[C@@H]3C(=O)O)OCCC2 (some centres undefined) | > 100 µM | –
CCOCc1nc2c(OC)cc(-c3nc4ccc(N5CCN(C)CC5)cc4[nH]3)c(OC)c2[nH]1 | > 100 µM | –
O=C(N/N=C\c1cccc2c([N+](=O)[O-])cccc12)Nc1ccccc1 | 16.1 µM | –
CC(=O)OCC12C(=O)C[C@@H](C)C3(CC(c4ccoc4)OC3=O)C1CCC(OC(C)=O)C21CO1 (some centres undefined) | > 100 µM | –
CON(C)C(=O)CNC(=O)OCC1c2ccccc2-c2ccccc21 | > 100 µM | –
Cc1cn(C2CC(N(O)Cc3ccccc3)C(CO[Si](C)(C)C(C)(C)C)O2)c(=O)[nH]c1=O (centres undefined) | 34.8 µM and 29.7 µM | –
O=C(NI1OC(=O)c2ccccc21)c1ccc(Cl)cc1 | > 100 µM | –
O=C(O)Cc1cccc2c(=O)c3ccccc3oc12 | > 100 µM | –
CC(=O)OC(/C=C/c1ccccc1)=C(OC(C)C)/C1=C(\c2ccccc2)SCCCSC1=O | > 100 µM | –
COc1cccc(-c2ccc3c4c2O[C@H]2C(=O)CC[C@@]5(O)[C@@H](C3)N(CC3CC3)CC[C@]425)c1 | 33.2 µM | –
COc1cc(Cn2c3c(c4cc(O)ccc42)Cc2ccccc2C3=O)cc(OC)c1 | > 100 µM | –

Compound | TGI | GI50
O=C1/C(=C/c2ccc([N+](=O)[O-])cc2)C(=O)N(c2ccccc2)C1c1ccccc1 (centres undefined) | > 10 µM | –
NC(N)=NCCC[C@H](N)C(=O)NCC(=O)N[C@@H](CC(=O)O)c1ncc(NC(=O)C(F)(F)F)o1 | > 25 µM | –
Cc1cc(S(=O)(=O)N=C2N(Cc3ccccc3)CCN2Cc2ccccc2)c(S)cc1Cl | > 100 µM | –
CCCN1CCC(=O)N(CCC(F)(F)C(F)(F)C(F)(F)C(F)(F)C(F)(F)C(F)(F)F)C1=S | > 100 µM | –
CSc1ccc2c(cc1=O)[C@@H](NC(=O)c1ccc(N)cc1)CCc1cc(O)c(O)c(O)c1-2 | > 100 µM | 23.8 µM and 11 µM
O=C(c1ccc(N=Cc2ccccc2O)cc1)c1ccc(N=Cc2ccccc2O)cc1 | > 100 µM | –
Cn1cc(NC(=O)c2cc(NC(=O)CN=C(N)N)cn2C)cc1C(=O)NCCC(=N)N | > 100 µM | –
O=Cc1c(C(=O)O)[nH]c(=O)[nH]c1=O | > 100 µM | –
CCOC(=O)c1cc(C(O)P2(=O)N(CC(C)(C)C)[C@@H]3CCCC[C@H]3N2CC(C)(C)C)cn1C(=O)OC(C)(C)C (some centres undefined) | 23.2 µM | –
Cc1cccc(N=NC(=O)NNc2cccc(C)c2C)c1C | 72.2 µM | –
COc1cc(/C=C2/C[C@H]3[C@@H]4CC=C5C[C@@H](O)CC[C@]5(C)[C@H]4CC[C@]3(C)NC2=O)cc(OC)c1OC | > 66.3 µM | –
Nc1cc2[nH]c(=O)c(=O)[nH]c2cc1N | > 100 µM | –
O=C1C=C(C2=CC(=O)C(=O)c3ccccc32)c2ccccc2C1=O | 50.1 µM | –
C[N+](C)(C)CC1CCCCCCCCCCC1=O (centres undefined) | > 100 µM | –
CCN(CC)CCNc1nc2ccc([N+](=O)[O-])cc2[n+]([O-])n1 | 49.6 µM | –
Cc1c(S(=O)(=O)/N=C(\NO)Nc2ccc(Cl)c(Cl)c2)sc2ccc(Cl)cc12 | 37 µM | –
NN/C(=N\S(=O)(=O)c1cc2ccccc2s1)Nc1ccc(Cl)cc1 | 30.6 µM | –

What follows are compounds tested on OVCAR-3 ovarian (assay: NCI anticancer screen, dose series, 48 h).

Compound | TGI [µM]
COc1cc(/C=C2\C(=O)N(c3ccccc3)C(c3ccccc3)S2(=O)=O)cc(OC)c1OC (centres undefined) | > 100
COc1ccc2ccccc2c1/C=C/C(=O)c1ccccc1 | 7.23
O=C1CSC(c2cccc(Oc3ccccc3)c2)N1c1ccc(Cl)cc1 (centres undefined) | > 100
Nc1nc(N)c2ncn(-c3ccc(Cl)cc3)c2n1 | > 100
Cc1ccc([N+](=O)[O-])cc1S(=O)(=O)Nc1ccc(C2=NNC(c3ccccc3)C2)cc1 (centres undefined) | 20.4
COc1cc(C(=O)N(Cc2cccnc2)C(=S)N(Cc2cccnc2)C(=O)c2cc(OC)c(OC)c(OC)c2)cc(OC)c1OC | > 100
COc1cc(CNCc2cc(OC)c(OC)c(OC)c2)cc(OC)c1OC | > 10
Cc1ccc2c(c1)C(C(=O)N[C@@H]1C(=O)N3[C@@H]1SC(C)(C)[C@@H]3C(=O)O)OCCC2 (some centres undefined) | > 100
CCOCc1nc2c(OC)cc(-c3nc4ccc(N5CCN(C)CC5)cc4[nH]3)c(OC)c2[nH]1 | 70.6
O=C(N/N=C\c1cccc2c([N+](=O)[O-])cccc12)Nc1ccccc1 | 29.4
CC(=O)OCC12C(=O)C[C@@H](C)C3(CC(c4ccoc4)OC3=O)C1CCC(OC(C)=O)C21CO1 (some centres undefined) | > 100
CON(C)C(=O)CNC(=O)OCC1c2ccccc2-c2ccccc21 | > 100
Cc1cn(C2CC(N(O)Cc3ccccc3)C(CO[Si](C)(C)C(C)(C)C)O2)c(=O)[nH]c1=O (centres undefined) | 32
O=C(NI1OC(=O)c2ccccc21)c1ccc(Cl)cc1 | > 100
O=C(O)Cc1cccc2c(=O)c3ccccc3oc12 | > 100
CC(=O)OC(/C=C/c1ccccc1)=C(OC(C)C)/C1=C(\c2ccccc2)SCCCSC1=O | > 100
COc1cccc(-c2ccc3c4c2O[C@H]2C(=O)CC[C@@]5(O)[C@@H](C3)N(CC3CC3)CC[C@]425)c1 | 27.6
COc1cc(Cn2c3c(c4cc(O)ccc42)Cc2ccccc2C3=O)cc(OC)c1 | > 100

Source: PubChem BioAssay (NCI)
